{"source": "ChEMBL document CHEMBL1201862", "about": "“PubChem BioAssay data set” (2004)", "test_in_all_cases": "inhibition of tumour cell growth, NCI panel, 48 h", "key": {"[1]": {"test_system": "Hs-578T"}, "[2]": {"test_system": "M14"}, "[3]": {"test_system": "HT-29"}, "[4]": {"test_system": "NCI-H23"}, "[5]": {"test_system": "U-251"}, "[6]": {"test_system": "UACC-62"}, "[7]": {"test_system": "K562"}, "[8]": {"test_system": "COLO 205"}, "[9]": {"test_system": "ACHN"}, "[10]": {"test_system": "UO-31"}, "[11]": {"test_system": "NCI-H226"}, "[12]": {"test_system": "OVCAR-3"}, "[13]": {"test_system": "OVCAR-4"}, "[14]": {"test_system": "A498"}, "[15]": {"test_system": "NCI-H460"}, "[16]": {"test_system": "SN12C"}, "[17]": {"test_system": "A549"}, "[18]": {"test_system": "SNB-19"}, "[19]": {"test_system": "SK-MEL-2"}, "[20]": {"test_system": "UACC-257"}, "[21]": {"test_system": "NCI/ADR-RES"}, "[22]": {"test_system": "IGROV-1"}, "[23]": {"test_system": "MCF7"}, "[24]": {"test_system": "RPMI-8226"}, "[25]": {"test_system": "OVCAR-8"}, "[26]": {"test_system": "HCT-116"}, "[27]": {"test_system": "SK-OV-3"}, "[28]": {"test_system": "EKVX"}, "[29]": {"test_system": "HL-60"}, "[30]": {"test_system": "T47D"}, "[31]": {"test_system": "LOX IMVI"}, "[32]": {"test_system": "NCI-H522"}, "[33]": {"test_system": "RXF 393"}, "[34]": {"test_system": "HOP-62"}, "[35]": {"test_system": "SW-620"}, "[36]": {"test_system": "SF-268"}, "[37]": {"test_system": "MDA-MB-231"}, "[38]": {"test_system": "OVCAR-5"}, "[39]": {"test_system": "SK-MEL-28"}, "[40]": {"test_system": "SK-MEL-5"}, "[41]": {"test_system": "SF-295"}, "[42]": {"test_system": "SF-539"}, "[43]": {"test_system": "SR"}, "[44]": {"test_system": "DU-145"}, "[45]": {"test_system": "SNB-75"}, "[46]": {"test_system": "CAKI-1"}, "[47]": {"test_system": "PC-3"}, "[48]": {"test_system": "MDA-N"}, "[49]": {"test_system": "HCT-15"}, "[50]": {"test_system": "CCRF-CEM"}, "[51]": {"test_system": "Malme-3M"}, "[52]": {"test_system": "HOP-92"}, "[53]": {"test_system": "786-0"}, "[54]": {"test_system": "KM12"}, "[55]": {"test_system": "MOLT-4"}, "[56]": {"test_system": "HCC 2998"}, "[57]": {"test_system": "MDA-MB-435"}, "[58]": {"test_system": "TK-10"}, "[59]": {"test_system": "BT-549"}}, "note": "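A five-concentration, 48-hour dose response in 96-well plates underlies each endpoint, interpolated linearly between surrounding concentrations. GI50 marks 50% less growth.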 The source made the active and inactive calls. Cut-off read from the data, not from the text of the source: active = GI50 up to about 1.1 µM and inactive = higher."}
{"molecule": "C=C1C(=O)O[C@@H]2C[C@@H](C)[C@@H]3[C@@H](OC4OC(COC(C)=O)C(O)C(O)C4O)CC(=O)[C@@]3(C)C[C@H]12", "note": "(some centres undefined)", "values": [{"measurement": "GI50", "setting": "[1]", "value": "25200 nM (inactive)"}, {"measurement": "GI50", "setting": "[2]", "value": "1430 nM (inactive)"}, {"measurement": "GI50", "setting": "[3]", "value": "1220 nM (inactive)"}, {"measurement": "GI50", "setting": "[4]", "value": "12500 nM (inactive)"}, {"measurement": "GI50", "setting": "[5]", "value": "7190 nM (inactive)"}, {"measurement": "GI50", "setting": "[6]", "value": "1550 nM (inactive)"}, {"measurement": "GI50", "setting": "[7]", "value": "596 nM (active)"}, {"measurement": "GI50", "setting": "[8]", "value": "703 nM (active)"}, {"measurement": "GI50", "setting": "[9]", "value": "508 nM (active)"}, {"measurement": "GI50", "setting": "[10]", "value": "1830 nM (inactive)"}, {"measurement": "GI50", "setting": "[11]", "value": "11000 nM (inactive)"}, {"measurement": "GI50", "setting": "[12]", "value": "1100 nM (active)"}, {"measurement": "GI50", "setting": "[13]", "value": "3310 nM (inactive)"}, {"measurement": "GI50", "setting": "[14]", "value": "15500 nM (inactive)"}, {"measurement": "GI50", "setting": "[15]", "value": "14300 nM (inactive)"}, {"measurement": "GI50", "setting": "[16]", "value": "1540 nM (inactive)"}, {"measurement": "GI50", "setting": "[17]", "value": "8670 nM (inactive)"}, {"measurement": "GI50", "setting": "[18]", "value": "20200 nM (inactive)"}, {"measurement": "GI50", "setting": "[19]", "value": "7500 nM (inactive)"}, {"measurement": "GI50", "setting": "[20]", "value": "1680 nM (inactive)"}, {"measurement": "GI50", "setting": "[21]", "value": "855 nM (active)"}, {"measurement": "GI50", "setting": "[22]", "value": "2170 nM (inactive)"}, {"measurement": "GI50", "setting": "[23]", "value": "728 nM (active)"}, {"measurement": "GI50", "setting": "[24]", "value": "1390 nM (inactive)"}, {"measurement": "GI50", "setting": "[25]", "value": "1360 nM (inactive)"}, {"measurement": "GI50", "setting": "[26]", "value": "659 nM (active)"}, {"measurement": "GI50", "setting": "[27]", "value": "19100 nM (inactive)"}, {"measurement": "GI50", "setting": "[28]", "value": "1870 nM (inactive)"}, {"measurement": "GI50", "setting": "[29]", "value": "211 nM (active)"}, {"measurement": "GI50", "setting": "[30]", "value": "2840 nM (inactive)"}, {"measurement": "GI50", "setting": "[31]", "value": "630 nM (active)"}, {"measurement": "GI50", "setting": "[32]", "value": "127 nM (active)"}, {"measurement": "GI50", "setting": "[33]", "value": "1850 nM (inactive)"}, {"measurement": "GI50", "setting": "[34]", "value": "17300 nM (inactive)"}, {"measurement": "GI50", "setting": "[35]", "value": "574 nM (active)"}, {"measurement": "GI50", "setting": "[36]", "value": "9770 nM (inactive)"}, {"measurement": "GI50", "setting": "[37]", "value": "4360 nM (inactive)"}, {"measurement": "GI50", "setting": "[38]", "value": "3540 nM (inactive)"}, {"measurement": "GI50", "setting": "[39]", "value": "2150 nM (inactive)"}, {"measurement": "GI50", "setting": "[40]", "value": "1740 nM (inactive)"}, {"measurement": "GI50", "setting": "[41]", "value": "17300 nM (inactive)"}, {"measurement": "GI50", "setting": "[42]", "value": "2420 nM (inactive)"}, {"measurement": "GI50", "setting": "[43]", "value": "1600 nM (inactive)"}, {"measurement": "GI50", "setting": "[44]", "value": "8380 nM (inactive)"}, {"measurement": "GI50", "setting": "[45]", "value": "7310 nM (inactive)"}, {"measurement": "GI50", "setting": "[46]", "value": "508 nM (active)"}, {"measurement": "GI50", "setting": "[47]", "value": "10300 nM (inactive)"}, {"measurement": "GI50", "setting": "[48]", "value": "1660 nM (inactive)"}, {"measurement": "GI50", "setting": "[49]", "value": 218, "unit": "nM"}, {"measurement": "GI50", "setting": "[50]", "value": "238 nM (active)"}, {"measurement": "GI50", "setting": "[51]", "value": "283 nM (active)"}, {"measurement": "GI50", "setting": "[52]", "value": "902 nM (active)"}, {"measurement": "GI50", "setting": "[53]", "value": "396 nM (active)"}, {"measurement": "GI50", "setting": "[54]", "value": "11000 nM (inactive)"}, {"measurement": "GI50", "setting": "[55]", "value": "1940 nM (inactive)"}, {"measurement": "GI50", "setting": "[56]", "value": "1750 nM (inactive)"}, {"measurement": "GI50", "setting": "[57]", "value": "2260 nM (inactive)"}, {"measurement": "GI50", "setting": "[58]", "value": "1680 nM (inactive)"}, {"measurement": "GI50", "setting": "[59]", "value": "1340 nM (inactive)"}]}
